Values belong to the molecule of their own block, whether it stands above or below them.
Legend:
Ileum [1] = assay: Antispasmodic activity in guinea pig ileum assessed as inhibition of histamine-induced contraction; type: functional, tissue-based; settings: Cavia porcellus
Rattus norvegicus [2] = assay: Anesthetic activity in rat at 0.5 uMol/site assessed as duration of full recovery of sensory block; type: functional
[3] = Activity at sodium channel assessed as blockade of sodium current
Ileum [4] = assay: Antispasmodic activity in guinea pig ileum assessed as inhibition of allergen-induced contraction; type: functional, tissue-based; settings: Cavia porcellus
Rattus norvegicus [5] = assay: Anesthetic activity in rat at 4.0 uMol/site assessed as duration of full recovery of sensory block; type: functional
Rattus norvegicus [6] = assay: Anesthetic activity in rat at 1.0 uMol/site assessed as duration of full recovery of sensory block; type: functional
Rattus norvegicus [7] = assay: Anesthetic activity in rat at 2.0 uMol/site assessed as duration of full recovery of sensory block; type: functional

IC50 (Ileum [1]): 1410 µM | IC50 [3]: 180 µM | IC50 (Ileum [4]): 1430 µM
Structure (SMILES): CCN(CC)CC(=O)Nc1c(C)cccc1C [LIDOCAINE]
Time (Rattus norvegicus [2]): 37 min | Time (Rattus norvegicus [5]): 164 min | Time (Rattus norvegicus [6]): 74 min | Time (Rattus norvegicus [7]): 103 min

Structure (SMILES): CCN(CC)CC(=O)Nc1cccc(C(F)(F)F)c1
Time (Rattus norvegicus [2]): 17 min | Time (Rattus norvegicus [5]): 18 min | Time (Rattus norvegicus [6]): 19 min | Time (Rattus norvegicus [7]): 18 min

Structure (SMILES): CCN(CC)CC(=O)Nc1ccc(C(F)(F)F)cc1
Time (Rattus norvegicus [2]): 19 min | Time (Rattus norvegicus [5]): 21 min | Time (Rattus norvegicus [6]): 19 min | Time (Rattus norvegicus [7]): 19 min

Structure (SMILES): CCN(CC)CCC(=O)Nc1c(C)cccc1C
Time (Rattus norvegicus [2]): 72 min | Time (Rattus norvegicus [5]): 311 min | Time (Rattus norvegicus [6]): 107 min | Time (Rattus norvegicus [7]): 194 min

Structure (SMILES): CCN(CC)CCC(=O)Nc1cccc(C)c1C
Time (Rattus norvegicus [2]): 22 min | Time (Rattus norvegicus [5]): 139 min | Time (Rattus norvegicus [6]): 49 min | Time (Rattus norvegicus [7]): 91 min

Structure (SMILES): CCN(CC)CC(=O)Nc1ccc(C)c(C)c1
Time (Rattus norvegicus [2]): 11 min | Time (Rattus norvegicus [5]): 55 min | Time (Rattus norvegicus [6]): 20 min | Time (Rattus norvegicus [7]): 32 min

Structure (SMILES): CCN(CC)CCC(=O)Nc1cc(C)cc(C)c1
Time (Rattus norvegicus [2]): 88 min | Time (Rattus norvegicus [5]): 377 min | Time (Rattus norvegicus [6]): 118 min | Time (Rattus norvegicus [7]): 240 min

Structure (SMILES): CCN(CC)CCC(=O)Nc1ccc(C)cc1C
Time (Rattus norvegicus [2]): 35 min | Time (Rattus norvegicus [5]): 239 min | Time (Rattus norvegicus [6]): 89 min | Time (Rattus norvegicus [7]): 166 min

Structure (SMILES): CCN(CC)CCC(=O)Nc1cc(C)ccc1C
Time (Rattus norvegicus [2]): 22 min | Time (Rattus norvegicus [5]): 101 min | Time (Rattus norvegicus [6]): 47 min | Time (Rattus norvegicus [7]): 72 min

IC50 (Ileum [1]): 140 µM | IC50 (Ileum [4]): 120 µM
Structure (SMILES): CCN(CC)CC(=O)Nc1cc(C)ccc1C
Time (Rattus norvegicus [2]): 19 min | Time (Rattus norvegicus [5]): 54 min | Time (Rattus norvegicus [6]): 28 min | Time (Rattus norvegicus [7]): 40 min

Structure (SMILES): CCN(CC)CCC(=O)Nc1ccc(C)c(C)c1
Time (Rattus norvegicus [2]): 26 min | Time (Rattus norvegicus [5]): 107 min | Time (Rattus norvegicus [6]): 48 min | Time (Rattus norvegicus [7]): 80 min

Structure (SMILES): CCN(CC)CC(=O)Nc1cc(C)cc(C)c1
Time (Rattus norvegicus [2]): 44 min | Time (Rattus norvegicus [5]): 181 min | Time (Rattus norvegicus [6]): 91 min | Time (Rattus norvegicus [7]): 134 min

IC50 (Ileum [1]): 100 µM | IC50 [3]: 25400 µM | IC50 (Ileum [4]): 50 µM
Structure (SMILES): CCN(CC)CC(=O)Nc1ccccc1C(F)(F)F
Time (Rattus norvegicus [2]): 8 min | Time (Rattus norvegicus [5]): 24 min | Time (Rattus norvegicus [6]): 13 min | Time (Rattus norvegicus [7]): 15 min

IC50 (Ileum [1]): 160 µM | IC50 (Ileum [4]): 160 µM
Structure (SMILES): CCN(CC)CC(=O)Nc1ccccc1C
Time (Rattus norvegicus [2]): 17 min | Time (Rattus norvegicus [5]): 63 min | Time (Rattus norvegicus [6]): 28 min | Time (Rattus norvegicus [7]): 48 min

IC50 (Ileum [1]): 310 µM | IC50 (Ileum [4]): 190 µM
Structure (SMILES): CCN(CC)CC(=O)Nc1ccc(C)cc1C
Time (Rattus norvegicus [2]): 17 min | Time (Rattus norvegicus [5]): 92 min | Time (Rattus norvegicus [6]): 32 min | Time (Rattus norvegicus [7]): 63 min

IC50 (Ileum [1]): 380 µM | IC50 (Ileum [4]): 330 µM
Structure (SMILES): CCN(CC)CC(=O)Nc1cccc(C)c1C
Time (Rattus norvegicus [2]): 7 min | Time (Rattus norvegicus [5]): 34 min | Time (Rattus norvegicus [6]): 16 min | Time (Rattus norvegicus [7]): 25 min

Source: ChEMBL document CHEMBL1142329, “Synthesis and antispasmodic activity of lidocaine derivatives endowed with reduced local anesthetic action” (Bioorg Med Chem Lett, 2008)
